From ChEMBL document CHEMBL4342488, “Structure-Activity Relationship Study of Covalent Pan-phosphatidylinositol 5-Phosphate 4-Kinase Inhibitors” (ACS Med Chem Lett, 2020) come the findings set out here.

SMILES strings stand for the structures. pIC50: −log10 of the molar value.

In experiment [1] the target is T1, Phosphatidylinositol 5-phosphate 4-kinase type-2 gamma (Homo sapiens, UniProt Q8TBX8).
T1 sequence (Q8TBX8 whole entry): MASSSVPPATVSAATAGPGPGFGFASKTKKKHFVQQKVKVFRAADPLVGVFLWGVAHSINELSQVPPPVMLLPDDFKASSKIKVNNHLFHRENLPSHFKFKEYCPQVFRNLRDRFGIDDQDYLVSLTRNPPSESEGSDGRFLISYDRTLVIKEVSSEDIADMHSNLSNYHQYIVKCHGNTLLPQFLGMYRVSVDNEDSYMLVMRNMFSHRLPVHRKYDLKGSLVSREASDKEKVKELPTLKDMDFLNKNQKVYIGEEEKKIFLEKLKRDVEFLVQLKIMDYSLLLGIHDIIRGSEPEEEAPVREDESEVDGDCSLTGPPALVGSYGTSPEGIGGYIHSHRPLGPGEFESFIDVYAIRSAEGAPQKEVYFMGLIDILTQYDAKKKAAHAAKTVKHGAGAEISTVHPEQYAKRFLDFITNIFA
Put plainly: Inhibition of PI5P4Kgamma (unknown origin).

Experiment [2] has as its target T2, Phosphatidylinositol 5-phosphate 4-kinase type-2 beta (Homo sapiens, UniProt P78356).
T2 sequence (P78356 whole entry): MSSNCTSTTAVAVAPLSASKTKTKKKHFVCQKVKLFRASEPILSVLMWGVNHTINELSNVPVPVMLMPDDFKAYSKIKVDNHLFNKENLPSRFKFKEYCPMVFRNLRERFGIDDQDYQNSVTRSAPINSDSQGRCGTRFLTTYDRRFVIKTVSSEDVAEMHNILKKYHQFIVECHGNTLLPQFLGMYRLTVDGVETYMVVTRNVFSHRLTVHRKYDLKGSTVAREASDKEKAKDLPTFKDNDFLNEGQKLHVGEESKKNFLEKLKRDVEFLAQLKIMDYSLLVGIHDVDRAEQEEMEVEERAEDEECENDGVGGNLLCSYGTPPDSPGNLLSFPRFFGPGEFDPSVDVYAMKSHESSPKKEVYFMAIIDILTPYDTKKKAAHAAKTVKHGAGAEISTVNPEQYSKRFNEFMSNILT
The experiment in a line: Inhibition of PI5P4Kbeta (unknown origin) incubated for 15 mins in presence of ATP by ADP-Glo assay. Background: In ADP-Glo the light output rises with the ADP produced.

Experiment [3] concerns the target T3, Phosphatidylinositol 5-phosphate 4-kinase type-2 alpha (Homo sapiens, UniProt P48426).
T3 sequence (P48426 whole entry): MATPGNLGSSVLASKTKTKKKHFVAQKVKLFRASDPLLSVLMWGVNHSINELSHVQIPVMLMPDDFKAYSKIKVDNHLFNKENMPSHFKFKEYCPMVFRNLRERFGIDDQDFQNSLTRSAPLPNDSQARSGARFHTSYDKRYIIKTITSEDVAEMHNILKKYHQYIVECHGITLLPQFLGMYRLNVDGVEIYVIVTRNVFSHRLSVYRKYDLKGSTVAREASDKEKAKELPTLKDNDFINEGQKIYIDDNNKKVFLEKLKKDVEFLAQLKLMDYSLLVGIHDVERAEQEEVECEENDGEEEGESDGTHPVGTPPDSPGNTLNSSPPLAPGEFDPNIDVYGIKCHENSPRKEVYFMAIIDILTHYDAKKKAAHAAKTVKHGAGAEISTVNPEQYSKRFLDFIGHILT
Put plainly: Inhibition of PI5P4Kalpha (unknown origin) incubated for 15 mins in presence of ATP by ADP-Glo assay.

Turning to `Cn1nnnc1Sc1ncnc2scc(-c3cccc(S(C)(=O)=O)c3)c12`, in experiment [1], the negative-log IC50 (pIC50) (usually the negative decadic logarithm of the IC50, by convention in mol/L) was 4.80.

In experiment [1], `FC(F)(F)c1ccccc1-c1nc(NCc2cccs2)c2ccccc2n1` had a pIC50 of 6.00.

On to `Cc1ccc(-n2ccc3c(Nc4cccc(NC(=O)c5ccc(NC(=O)/C=C/CN(C)C)cc5)c4)ncnc32)cc1`, for which the results for the pIC50 in experiment [2] (read-out: IC50) and in experiment [3] (read-out: IC50) were 5.00 and 5.87, respectively.

For the molecule `CN(C)C/C=C/C(=O)Nc1cccc(NC(=O)N2CCCC(Nc3cc(-c4cnc5[nH]ccc5c4)ncn3)C2)c1` (stereo unspecified), the IC50 result in experiment [2] and in experiment [3] was “Not Active” throughout.
